The source of these data is PMC2614347, “A Novel Peptide Enhances Therapeutic Efficacy of Liposomal Anti-Cancer Drugs in Mice Models of Human Lung Cancer” (PLoS ONE, 2009).

The subject of data set [1] is CL1-5 cells. Briefly: Phage binding to cells, immunohistochemical staining. More on the design: species or system human. The note with it: immunohistochemistry, anti-M13 mAb. The method, then: (§1) Cells were plated and grown to about 80% confluence on cover slips. The cover slips were treated with 3% hydrogen peroxide plus 0.1% NaN3 to block endogenous peroxidase activity, and then incubated with phages. After the cover slips had been washed and fixed with 3% paraformaldehyde, they were incubated with HRP-labeled mouse anti-M13 mAb and treated with peroxidase substrate. For the peptide binding assays, 30 µg/ml FITC-labeled SP5-2 or control peptide was added on each cover slip and incubated. They were counterstained with Hoechst 33258 (Molecular Probes, OR, USA) and mounted with a mounting solution (Vector, CA, USA). The cells were then examined under a Leica universal microscope. The images were merged using the SimplePCI software (C-IMAGING, PA, USA).

Data set [2] relates to PC13 cells. Described as above. Also noted: species or system human. The conditions noted are these: immunohistochemistry, anti-M13 mAb. The method, then: as §1
Data set [3] deals with nasopharyngeal carcinoma cells (NPC-TW01). Described as above. More on the design: species or system human. The conditions noted are these: immunohistochemistry, anti-M13 mAb. The method, then:
as §1

Data set [4] concerns normal epithelial cells (NNM) from nasal mucosa. The description is as above. More on the design: species or system human. The note with it: immunohistochemistry, anti-M13 mAb. Here is the method:
as §1

For a further data set, the system named is oral cancer (SAS) cells. The data set is described as above. Also noted: species or system human. The note with it: immunohistochemistry, anti-M13 mAb. The method, then:
as §1

A further data set deals with NPC-TW01 cells. Put plainly: Phage binding, immunofluorescent staining. More on the design: species or system human.
In data set [5] the test system is CL1-5 cells. Put plainly: Phage binding and peptide competition, flow cytometry. More on the design: species or system human. The note with it: fraction of cells gated for positive binding. Here is the method: (§2) The lung and other cancer cell lines were collected using PBS containing 50 mM EDTA, then incubated with phages or FITC-labeled peptides. For the peptide competitive inhibition assay, phages were mixed with different concentrations of the synthetic peptide and the mixture was incubated with the cells. After washing, the phage-bound cells were incubated with anti-M13 mAbs and then treated with FITC-conjugated goat anti-mouse IgG antibody. Cells were washed and analyzed with a flow cytometer (Becton Dickinson)
(§3) Fig. S2. The binding activity of PC5-2 to NSCLC cells was analyzed by flow cytometry. The samples included cells only (a, green), control phage (b, red), and PC5-2 (blue). The percentages indicate the fraction of cells gated for positive binding (c).
Background: A flow cytometer gives signals particle by particle.

For another data set, the system named is NNM cells. Put plainly: Phage binding, flow cytometry. Also noted: species or system human. The method, then:
as §2, §3

In a further data set the test system is SAS cells. Put plainly: Phage binding, flow cytometry. Also noted: species or system human. The method, then: as §2, §3
Data set [6] deals with surgical specimens of human lung cancer (pulmonary adenocarcinoma). Put plainly: Binding of phages and synthetic peptides to surgical specimens of lung cancer, immunohistochemistry. Here is the method:
For localization of peptide binding on lung cancer tissues, frozen sections of NSCLC tissues were prepared and incubated with phage clones or biotin-labeled peptides. For the peptide competitive inhibition assay, phages were mixed with the synthetic targeting or mutant peptide. The slides were subjected to routine immunohistochemical staining, [30]. All surgical specimens were obtained from the tissue bank of National Taiwan University Hospital (NTUH) with approval from the Institutional Review Board in NTUH (IRB9461702021).

For another data set, the system named is CL1-5-derived tumors. Briefly: In vivo homing and tissue distribution of phages. Also noted: species or system SCID mice. Here is the method: SCID mice were injected subcutaneously (s.c.) in the dorsolateral flank with 1×10^7 human NSCLC cells. The mice bearing size-matched lung cancer xenografts (approximately 500 mm^3) were injected i.v. with 10^9 pfu of the targeting or control phage. After perfusion, xenograft tumors and mouse organs were removed and homogenized. The phages bound to each tissue sample were recovered through the addition of ER2738 bacteria and titered on IPTG/X-Gal agar plates. In the peptide competitive inhibition experiments, the phages were injected along with 100 µg synthetic targeting peptide, control peptide or mutant peptide. The organs and tumor masses were fixed in Bouin's solution (Sigma, MO, USA). After fixation, the samples were embedded in paraffin blocks. The paraffin sections were deparaffinized, rehydrated, and subjected to immunostaining using the mouse M13 mAb as described above.

Data set [7] has as its system CL1-5 cells.
Protocol: (§4) FITC-labeled SP5-2 binding to NSCLC cells was analyzed by flow cytometry.
Data set [8] has as its system PC13 cells.
Protocol: as §4
Another data set has as its system CL1-5-derived xenografts. Put plainly: Ligand-targeted therapy of lung cancer xenografts. Format: in vivo, SCID mice. The note with it: doxorubicin 1 mg/kg i.v. twice a week, eight injections; n = 6. The method, then:
Mice 4–6 weeks of age were injected s.c. in the dorsolateral flank with human NSCLC cells. […] Mouse body weights and tumor sizes were measured twice a week. Tumor volumes were calculated using the equation: length×(width)^2×0.52. Animal care was carried out in accordance with guidelines of Academia Sinica, Taiwan.

For another data set, the system named is H460-derived xenografts. Briefly: Ligand-targeted therapy of lung cancer xenografts. Format: in vivo, SCID mice. The note with it: doxorubicin 1 mg/kg i.v. twice a week, eight injections.
The nature of data set [9]: Pharmacokinetic and biodistribution study of doxorubicin formulations. Format: in vivo, SCID mice. The note with it: 2 mg/kg i.v., n = 3 per time point. Here is the method:
At selected time points, three mice in each group were anaesthetized and sacrificed. Blood samples were collected through submaxillary punctures, and plasma samples were prepared. After perfusion, xenograft tumors and mouse organs were removed and homogenized.

The subject of another data set is NSCLC xenografts. Put plainly: Doxorubicin autofluorescence microscopy of tumor sections. Format: in vivo, SCID mice. The note with it: fluorescence microscope; 1, 4 and 24 hours post-injection. The source says:
Tissue sections were imaged with a FLUAR 10×/0.50 NA lens and captured with a Roper Scientific CoolSnap HQ CCD camera. All images were captured in 8-bit signal depth and subsequently pseudo-colored.

Ends that are not written are not given here.

Protocol for A549 cells: as §4
Protocol for H23 cells: as §4
Protocol for H460 cells: as §4

As to TDSILRSYDWTY [PC5-2], in the data set on CL1-5 cells [1], the “Binding of phage to CL1-5 cells” value is on record as “bound specifically”. Moreover, the “Binding of phage to PC13 cells” value in the data set on PC13 cells [2] is recorded as “bound specifically”. For the same molecule, the results for the “Binding of phage to NPC-TW01 cells” value (in [3]; in the data set on NPC-TW01 cells) were “bound neither” and “did not bind”, respectively. Moreover, the “Binding of phage to NNM cells” value is “nor to normal epithelial cells” in data set [4] and “did not bind” in the data set on NNM cells. Moreover, the “Binding of phage to SAS cells” value is given as “bound neither” in the data set on oral cancer (SAS) cells and “did not bind” in the data set with SAS cells. In the data set with CL1-5 cells [5], the “CL1-5 cells bound by phage” value worked out at 42.6%. Further, the “Recognition of tumor cells of NSCLC surgical specimens” value in [6] (frozen sections) is listed as “recognized”. The “Reaction area, HLC 1” value in data set [6] (human lung cancer surgical specimen HLC 1) was “+++ (>50%)”. Besides, the “Reaction area, HLC 2” value in data set [6] (human lung cancer surgical specimen HLC 2) was “+++ (>50%)”. Further, the “Reaction area, HLC 3” value in [6] (human lung cancer surgical specimen HLC 3) is “- (0%)”. The “Reaction area, HLC 4” value in data set [6] (human lung cancer surgical specimen HLC 4) was “+ (<20%)”. Besides, the “Reaction area, HLC 5” value in [6] (human lung cancer surgical specimen HLC 5) is given as “+++ (>50%)”. In addition, in data set [6] (human lung cancer surgical specimen HLC 6), the “Reaction area, HLC 6” value is listed as “++ (50~20%)”. Further, in data set [6] (human lung cancer surgical specimen HLC 7), the “Reaction area, HLC 7” value was “++ (50~20%)”. Further, the “Reaction area, HLC 8” value in data set [6] (human lung cancer surgical specimen HLC 8) is given as “++ (50~20%)”. Moreover, in [6] (human lung cancer surgical specimen HLC 9), the “Reaction area, HLC 9” value was “+ (<20%)”. The “Reaction area, HLC 10” value in data set [6] (human lung cancer surgical specimen HLC 10) is listed as “- (0%)”. In addition, the “Reaction area, HLC 11” value in data set [6] (human lung cancer surgical specimen HLC 11) was “++ (50~20%)”. Moreover, the “Reaction area, HLC 12” value in data set [6] (human lung cancer surgical specimen HLC 12) was “++ (50~20%)”. In data set [6] (human lung cancer surgical specimen HLC 13), the “Reaction area, HLC 13” value is reported as “+ (<20%)”. For the same molecule, the “Reaction area, HLC 14” value in data set [6] (human lung cancer surgical specimen HLC 14) is recorded as “- (0%)”. The “Reaction area, HLC 15” value in data set [6] (human lung cancer surgical specimen HLC 15) was “+++ (>50%)”. Also, the “Reaction area, HLC 16” value in data set [6] (human lung cancer surgical specimen HLC 16) was “- (0%)”. In addition, the “Reaction area, HLC 17” value in data set [6] (human lung cancer surgical specimen HLC 17) is listed as “- (0%)”. The “Reaction area, HLC 18” value in data set [6] (human lung cancer surgical specimen HLC 18) is reported as “++ (50~20%)”. The “Reaction area, HLC 19” value in data set [6] (human lung cancer surgical specimen HLC 19) is “+++ (>50%)”. The “Reaction area, HLC 20” value in data set [6] (human lung cancer surgical specimen HLC 20) is given as “+++ (>50%)”. The “Reaction area, HLC 21” value in data set [6] (human lung cancer surgical specimen HLC 21) is “++ (50~20%)”. For the same molecule, the “Reaction area, HLC 22” value in data set [6] (human lung cancer surgical specimen HLC 22) is on record as “- (0%)”. Also, the “Reaction area, HLC 23” value in data set [6] (human lung cancer surgical specimen HLC 23) is on record as “- (0%)”. Further, in [6] (human lung cancer surgical specimen HLC 24), the “Reaction area, HLC 24” value is listed as “++ (50~20%)”. Besides, the “Reaction area, HLC 25” value in data set [6] (human lung cancer surgical specimen HLC 25) was “+++ (>50%)”. Also, the “Reaction area, HLC 26” value in data set [6] (human lung cancer surgical specimen HLC 26) is recorded as “+++ (>50%)”. For the same molecule, the “Reaction area, HLC 27” value in [6] (human lung cancer surgical specimen HLC 27) is “+ (<20%)”. Moreover, the “Reaction area, HLC 28” value in [6] (human lung cancer surgical specimen HLC 28) is on record as “++ (50~20%)”. Also, the “Reaction area, HLC 29” value in data set [6] (human lung cancer surgical specimen HLC 29) was “- (0%)”. Also, the “Reaction area, HLC 30” value in [6] (human lung cancer surgical specimen HLC 30) is listed as “++ (50~20%)”. In addition, the “Reaction area, HLC 31” value in [6] (human lung cancer surgical specimen HLC 31) was “++ (50~20%)”. Further, the “Reaction area, HLC 32” value in data set [6] (human lung cancer surgical specimen HLC 32) is on record as “- (0%)”. Besides, in data set [6] (human lung cancer surgical specimen HLC 33), the “Reaction area, HLC 33” value is listed as “++ (50~20%)”. The “Reaction area, HLC 34” value in data set [6] (human lung cancer surgical specimen HLC 34) is reported as “+++ (>50%)”. The “Reaction area, HLC 35” value in data set [6] (human lung cancer surgical specimen HLC 35) is given as “+ (<20%)”. For the same molecule, the “Reaction area, HLC 36” value in data set [6] (human lung cancer surgical specimen HLC 36) is “++ (50~20%)”. For the same molecule, in the data set with CL1-5-derived tumors (brain, heart and lung tissues), the “Immunohistochemical localization of phage in normal organs after i.v. injection” value is given as “no reaction product detected”. In addition, in the data set with CL1-5-derived tumors (i.v. 10^9 pfu, recovered after perfusion, control organs brain, heart and lungs), the “Phage concentration in tumor masses relative to control organs” value is listed as 15 fold. Further, the “Immunohistochemical localization of phage in tumor tissues after i.v. injection” value in the data set on CL1-5-derived tumors (tumor sections, anti-M13 mAb) is on record as “localize in tumor tissues”.

For the molecule TDSILRSYDWTY [SP5-2], the “Proportion of CL1-5 cells bound by SP5-2” value in the data set on CL1-5 cells [7] is given as 43.0%. Further, the “Proportion of H460 cells bound by SP5-2” value in the data set with H460 cells amounted to 45.8%. Besides, in the data set with A549 cells, the “Proportion of A549 cells bound by SP5-2” value is 44.3%. Further, the “Proportion of PC13 cells bound by SP5-2” value in the data set with PC13 cells [8] is given as 20.1%. In the data set on H23 cells, the “Proportion of H23 cells bound by SP5-2” value was 44.0%.

As to “DMPKQLLAPWYY [PC5-4, phage clone displaying […]]”, the “Recovery of PC5-4 phage from tumor versus control organs” value with CL1-5-derived tumors (i.v., recovered after perfusion, SCID mice bearing NSCLC xenografts (Fig. S4)) is “higher than from control organs”.

`COc1cccc2c1C(=O)c1c(O)c3c(c(O)c1C2=O)C[C@@](O)(C(=O)CO)C[C@@H]3O[C@H]1C[C@H](N)[C@H](O)[C@H](C)O1` [FD, doxorubicin]: the “Tumor size smaller than that in the PBS group” value with CL1-5-derived xenografts is given as 16%. Further, the “Reduction of tumor size compared with PBS group” value in the data set on H460-derived xenografts is 14%. The “Blood concentration of doxorubicin after administration” value in data set [9] (tail vein, spectrofluorometry) was “drops to background level within one hour”. In data set [9] (nuclear doxorubicin in tumor), the “AUC0-48 h, Nuclear” value stood at 3.7 μg h/g tumor. For the same molecule, the “AUC0–48 hours of bioavailable doxorubicin (bound to nuclei)” value in data set [9] (tumor cell nuclei, spectrofluorometry) came to 3.7 µg·h/g. For the same molecule, the “Areas of tumor sections with detectable doxorubicin” value in the data set with NSCLC xenografts is “no detectable doxorubicin”.
